Measurements reported in patent US9827219B2, “Compositions and methods for lowering levels of high-sensitivity C-reactive protein (HS-CRP) in a subject” (priority 2012, dated 2017).

System: cognitive performance in subjects with AAMI
Test: CDR computerized cognitive test battery, 6-week pilot study in Age-Associated Memory Impairment (Example 1)
Type: in vivo, human
Details: for Quality of Episodic Secondary Memory, LS mean difference vs placebo: overall
Experimental: A single-center, 6-week, double-blind, randomizes, parallel-group, placebo-controlled, dose-ranging pilot study was performed to evaluate the efficacy, tolerability, and safety of >96% ethyl-EPA in subjects with subjective and objective memory impairment according to generally accepted criteria for Age-Associated Memory Impairment (“AAMI”). The primary objective of the study was to determine the effect of >96% ethyl-EPA 1 g, 2 g, and 4 g daily, compared to placebo, on cognitive performance in subjects with AAMI.
The population for this study was men and women between ages 50 and 70 with self-reported complaints of memory loss, subjective and objective cognitive impairment with a score of at least one standard deviation below that of the mean for age-matched elderly population as determined by the total score of between 13 and 20 from the Paired Associated Learning (“PAL”) subset of the Wechsler Memory Scale, evidence of adequate intellectual function as determined by a scaled score of at least 9 (raw score of at least 32) on the Vocabulary subtest of the Wechsler Adult Intelligence Scale and absence of dementia as determined by a score of 24 or higher on the Mini-Mental State Examination (“MMSE”).
Ninety-four subjects were randomized into one of six groups: 1 g E-EPA daily (n=23), 2 g E-EPA daily (n=24), 4 g E-EPA daily (n=24), 1 g placebo daily (n=7), 2 g placebo daily (n=8), and 4 g placebo daily (n=8). E-EPA was provided as 500 mg soft gel capsules containing >96% E-EPA and 0.2% dl-α-tocopherol as an antioxidant. Placebo capsules contained 467 mg of liquid paraffin and 0.2% dl-α-tocopherol. Ninety-one subjects completed the study. Two subjects in the 2 g E-EPA group and one subject in the 2 g placebo group discontinued the study.
The study consisted of a screening visit, a training visit, and four study visits. At the screening visit, subjects' eligibility was determined through cognitive tests (verbal paired associated learning [PAL] subscale, vocabulary subtest, Memory Assessment Clinics Questionnaire [MAC-Q], mini mental state evaluation [MMSE] and MINI [mini international neuropsychiatric interview; sections 1 and 2 of Diagnostic and Statistical Manual of Mental Disorders, 4th Edition (DSM-IV) plus dysthymia]), haematology, clinical chemistry and 12-lead electrocardiogram (ECG). At the training visit, subjects were shown how to use the CDR computerized system. Subjects took study drug for 6 weeks and on Days 0, 14, 28 and 42, subjects underwent the CDR cognitive test battery.
A selection of tasks from the CDR computerized cognitive assessment system were administered at Visit 2 (training visit), Visit 3 (baseline), Visit 4 (Day 14), Visit 5 (Day 28) and Visit 6 (Day 42). Parallel forms of the tests were presented at each testing session. All tasks were computer-controlled, the information presented on high resolution monitors, and the responses recorded via a response model containing two buttons: one marked ‘no’ and the other ‘yes’. Five CDR composite scores were used as the primary/secondary outcome variables. The task titles were: • Word Presentation • Immediate Word Recall • Picture Presentation • Simple Reaction Time • Digit Vigilance • Choice Reaction Time • Spatial Working Memory • Numeric Working Memory • Delayed Word Recall • Word Recognition • Picture Recognition • Bond-Lader Visual Analogue Scales of Mood and Alertness • Screen, Using the Computer Mouse
To ensure consistency of approach, full training on the cognitive tests and CDR test battery was provided to study site staff and study subjects. The results of each variable were automatically recorded using the machine interface developed by CDR.
Summary statistics were provided for the ITT and Study Per Protocol Populations separately for all composite scores, major and supportive variables. Summary statistics were performed for both the unadjusted and difference from baseline data (i.e. the difference from the time matched predose assessments on Day 0). […]

[1] = ITT, ANCOVA, 1, 2, 4 g daily vs placebo
[2] = post-hoc vs corresponding placebo
[3] = post-hoc vs corresponding placebo, 1 g, Days 14 and 28

SMILES: CC/C=C\C/C=C\C/C=C\C/C=C\C/C=C\CCCC(=O)OCC [AMR101, all-cis eicosa-5,8,11,14,17-pentaenoic acid ethyl ester]
- Self-Rated Contentment, LS mean difference to placebo (ITT): no statistically significant effects
- Immediate Word Recall Accuracy, LS mean difference vs placebo (ITT, 1 g, AM 1, p=0.040): statistically significant decreases
- Immediate Word Recall Accuracy, LS mean difference vs placebo (ITT, 1 g, Day 14, p=0.028): statistically significant decreases
- Picture Recognition Speed, LS mean difference vs placebo (ITT, 1 g, Day 14 at AM 2, p=0.084): trends for benefits versus placebo
- Immediate Word Recall Accuracy, LS mean difference vs placebo (ITT, 1 g, Day 14 at PM 2, p=0.020): statistically significant decreases
- Word Recognition Sensitivity Index, LS mean difference vs placebo (ITT, 1 g, Day 28, p=0.024): statistically significant decreases
- Picture Recognition Speed, LS mean difference vs placebo (ITT, 1 g, Day 28 at AM 1, p=0.085): trends for benefits versus placebo
- Picture Recognition Sensitivity Index, LS mean difference vs placebo (ITT, 1 g, Day 28 at AM 2, p=0.017): statistically significant decrease
- Picture Recognition Sensitivity Index, LS mean difference vs placebo (ITT, 1 g, Day 28 at PM 2, p=0.040): statistically significant decrease
- Quality of Episodic Secondary Memory, LS mean difference vs placebo (ITT, 1 g, p=0.040): statistically significant decreases versus placebo
- Immediate Word Recall Accuracy, LS mean difference vs placebo (ITT, 2 g, AM 1, p=0.028): statistically significant decreases
- Immediate Word Recall Accuracy, LS mean difference vs placebo (ITT, 2 g, Day 28, p=0.017): statistically significant decreases
- Self-Rated Alertness, LS mean difference vs placebo (ITT, 2 g, Day 28, p=0.047): statistically significant decrease in ratings
- Immediate Word Recall Accuracy, LS mean difference vs placebo (ITT, 2 g, Day 28 at AM 1, p=0.006): statistically significant decreases
- Self-Rated Alertness, LS mean difference vs placebo (ITT, 2 g, Day 28 at AM 2, p=0.041): statistically significant decrease in ratings
- Quality of Episodic Secondary Memory, LS mean difference vs placebo (ITT, 2 g, p=0.035): statistically significant decreases versus placebo
- Spatial Working Memory Speed, LS mean difference vs placebo (ITT, 4 g, Day 14 at PM 1, p=0.048): statistically significant benefit versus placebo
- Word Recognition Sensitivity Index, LS mean difference vs placebo (ITT, 4 g, Day 28 at PM 2, p=0.030): statistically significant decrease
- Word Recognition Sensitivity Index, LS mean difference vs placebo (ITT, 4 g, Day 42, p=0.038): statistically significant decreases
- Spatial Working Memory Speed, LS mean difference vs placebo (ITT, 4 g, Day 42 at AM 1, p=0.061): trend for a benefit
- Word Recognition Sensitivity Index, LS mean difference vs placebo (ITT, 4 g, PM 2, p=0.045): statistically significant decrease
- Continuity of Attention (ITT, ANCOVA): no statistically significant effect of treatment
- Delayed Word Recall Accuracy (ITT, ANCOVA): no statistically significant effects of treatment
- Digit Vigilance Targets Detected (ITT, ANCOVA): no statistically significant effect of treatment
- Immediate Word Recall Accuracy (ITT, ANCOVA): no statistically significant effects of treatment
- Numeric Working Memory Speed (ITT, ANCOVA): no statistically significant effects of treatment
- Picture Recognition Sensitivity Index (ITT, ANCOVA): no statistically significant effects of treatment
- Picture Recognition Speed (ITT, ANCOVA): no statistically significant effects of treatment
- Quality of Episodic Secondary Memory (ITT, ANCOVA): no statistically significant effect of treatment
- Self-Rated Alertness (ITT, ANCOVA): no statistically significant effect of treatment
- Self-Rated Calmness (ITT, ANCOVA): no statistically significant effect of treatment
- Spatial Working Memory Speed (ITT, ANCOVA): no statistically significant effects of treatment
- Speed of Memory (ITT, ANCOVA): no statistically significant effects of treatment
- Word Recognition Sensitivity Index (ITT, ANCOVA): no statistically significant effects of treatment
- Word Recognition Speed (ITT, ANCOVA): no statistically significant effects of treatment
- Digit Vigilance Speed [1]: no statistically significant effects of treatment
- Power of Attention [1]: no statistically significant effect of treatment
- Simple Reaction Time [1]: no statistically significant effects of treatment
- Self-Rated Contentment (ITT, ANCOVA, p<0.001): statistically significant treatment by day interaction
- Choice Reaction Time (ITT, ANCOVA, p=0.011): statistically significant treatment by day interaction
- Spatial Working Memory Sensitivity Index (ITT, ANCOVA, p=0.015): statistically significant treatment by day interaction
- Quality of Working Memory (ITT, ANCOVA, p=0.019): statistically significant treatment by day interaction
- Numeric Working Memory Sensitivity Index (ITT, ANCOVA, p=0.089): statistical trend for a treatment by day interaction
- Power of Attention, LS mean difference active vs placebo (ITT, any time-point): no LS mean difference between active treatment and placebo
- Continuity of Attention (Study Per Protocol, ANCOVA): no statistically significant effect of treatment
- Digit Vigilance Targets Detected (Study Per Protocol, ANCOVA, p=0.040): statistically significant treatment by time-point interaction
- Self-Rated Contentment, LS mean difference to placebo (Study Per-Protocol): no statistically significant effects
- Immediate Word Recall Accuracy, LS mean difference to placebo (Study Per-Protocol, 1 g, AM 1, p=0.038): statistically significant decreases
- Immediate Word Recall Accuracy, LS mean difference to placebo (Study Per-Protocol, 1 g, AM 2, p=0.048): statistically significant decreases
- Immediate Word Recall Accuracy, LS mean difference to placebo (Study Per-Protocol, 1 g, Day 14, p=0.024): statistically significant decreases
- Immediate Word Recall Accuracy, LS mean difference to placebo (Study Per-Protocol, 1 g, Day 14 at PM 2, p=0.019): statistically significant decreases
- Word Recognition Sensitivity Index, LS mean difference to placebo (Study Per-Protocol, 1 g, Day 28, p=0.027): statistically significant decreases
- Picture Recognition Sensitivity Index, LS mean difference vs placebo (Study Per-Protocol, 1 g, Day 28 at AM 2, p=0.020): statistically significant decreases versus placebo
- Picture Recognition Sensitivity Index, LS mean difference vs placebo (Study Per-Protocol, 1 g, Day 28 at PM 2, p=0.026): statistically significant decreases versus placebo
- Quality of Episodic Secondary Memory, LS mean difference vs placebo (Study Per-Protocol, 1 g, p=0.043): statistically significant decreases versus placebo
- Immediate Word Recall Accuracy, LS mean difference to placebo (Study Per-Protocol, 2 g, AM 1, p=0.029): statistically significant decreases
- Immediate Word Recall Accuracy, LS mean difference to placebo (Study Per-Protocol, 2 g, Day 28, p=0.017): statistically significant decreases
- Self-Rated Alertness, LS mean difference vs placebo (Study Per-Protocol, 2 g, Day 28, p=0.035): statistically significant decrease in ratings
- Immediate Word Recall Accuracy, LS mean difference to placebo (Study Per-Protocol, 2 g, Day 28 at AM 1, p=0.006): statistically significant decreases
- Self-Rated Alertness, LS mean difference vs placebo (Study Per-Protocol, 2 g, Day 28 at AM 2, p=0.033): statistically significant decrease in ratings
- Quality of Episodic Secondary Memory, LS mean difference vs placebo (Study Per-Protocol, 2 g, p=0.036): statistically significant decreases versus placebo
- Word Recognition Sensitivity Index, LS mean difference to placebo (Study Per-Protocol, 4 g, Day 42, p=0.038): statistically significant decreases
- Self-Rated Calmness, LS mean difference vs placebo (Study Per-Protocol, 4 g, Day 42 at PM 1, p=0.071): statistical trend for an increase in ratings versus placebo
- Delayed Word Recall Accuracy (Study Per-Protocol, ANCOVA): no statistically significant effects of treatment
- Digit Vigilance Speed (Study Per-Protocol, ANCOVA): no statistically significant effects of treatment
- Immediate Word Recall Accuracy (Study Per-Protocol, ANCOVA): no statistically significant effects of treatment
- Numeric Working Memory Speed (Study Per-Protocol, ANCOVA): no statistical significant effects of treatment
- Picture Recognition Sensitivity Index (Study Per-Protocol, ANCOVA): no statistically significant effects of treatment
- Picture Recognition Speed (Study Per-Protocol, ANCOVA): no statistical significant effects of treatment
- Power of Attention (Study Per-Protocol, ANCOVA): no statistically significant effect of treatment
- Quality of Episodic Secondary Memory (Study Per-Protocol, ANCOVA): no statistically significant effects of treatment
- Self-Rated Alertness (Study Per-Protocol, ANCOVA): no statistically significant effect of treatment
- Self-Rated Calmness (Study Per-Protocol, ANCOVA): no statistically significant effect of treatment
- Simple Reaction Time (Study Per-Protocol, ANCOVA): no statistically significant effects of treatment
- Spatial Working Memory Speed (Study Per-Protocol, ANCOVA): no statistical significant effects of treatment
- Speed of Memory (Study Per-Protocol, ANCOVA): no statistical significant effects of treatment
- Word Recognition Sensitivity Index (Study Per-Protocol, ANCOVA): no statistically significant effects of treatment
- Word Recognition Speed (Study Per-Protocol, ANCOVA): no statistical significant effects of treatment
- Self-Rated Contentment (Study Per-Protocol, ANCOVA, p<0.001): statistically significant treatment by day interaction
- Choice Reaction Time (Study Per-Protocol, ANCOVA, p=0.013): statistically significant treatment by day interaction
- Spatial Working Memory Sensitivity Index (Study Per-Protocol, ANCOVA, p=0.014): statistically significant treatment by day interaction
- Quality of Working Memory (Study Per-Protocol, ANCOVA, p=0.021): statistically significant treatment by day interaction
- Power of Attention, difference active vs placebo (Study Per-Protocol, any time-point): no difference between active treatment and placebo
- Continuity of Attention [2]: no general pattern of effects
- Numeric Working Memory Sensitivity Index [2]: only isolated improvements and declines in performance
- Quality of Working Memory [2]: only isolated improvements and declines in performance
- Self-Rated Calmness [2]: no differences between active treatment and placebo
- Power of Attention (post-hoc vs corresponding placebo group, 4 g, Day 42): overall benefit versus the corresponding placebo
- Self-Rated Alertness [3]: decreases in ratings
- Self-Rated Contentment [3]: decreases in ratings
- Choice Reaction Time (post-hoc vs corresponding placebo, 4 g, Day 42): superior to placebo at every time point
- Spatial Working Memory Sensitivity Index (post-hoc vs corresponding placebo, 4 g, Day 42, Study PP Population): overall benefit for ethyl-EPA 4 g over placebo
- Simple Reaction Time (post-hoc vs corresponding placebo, 4 g, PM 2 collapsed across days, several time-points on Days 14 and 42): improvements in performance
- Choice Reaction Time (post-hoc vs corresponding placebo, 4 g, all study days): overall benefit versus corresponding placebo
- Quality of Episodic Secondary Memory and contributing subtasks (post-hoc vs corresponding placebo, explained by pre-existing differences between groups): a number of decreases for ethyl-EPA
- Subtask measures of Speed of Memory (post-hoc vs corresponding placebo, mostly 1 g): some signs of improvement in performance
